Assay results published in PMC11024869, “The activity of antimicrobial peptoids against multidrug-resistant ocular pathogens” (Contact lens & anterior eye : the journal of the British …, 2024).
≈ marks a conversion by molar mass, not a printed value. Non-standard residues stand in square brackets, D forms with d. Residues, ends and D or L forms follow the SMILES beside them. Nspe = C[C@H](NCC(=O)O)c1ccccc1; NDecylGly = CCCCCCCCCCNCC(=O)O; Nlys = NCCCCNCC(=O)O

Legend:
Format in all cases: cell-based
[1] = system: Streptococcus pneumoniae SP07; conditions: SP07, MHB, 24 h 37 °C
Excerpt: (§3) The S. pneumoniae strains used were SP04, SP06 and SP07 [46] and Streptococcus gallolyticus SV06 (all isolated from eyes of contact lens wearers during adverse events); P. aeruginosa PAO1 (which was originally isolated from a wound, and is an invasive strain containing the gene exoS) as well as isolates from microbial keratitis, PA 235 (invasive strain containing exoS), PA216 (a cytotoxic strain containing exoU), PA219 (cytotoxic strain containing exoU), PA 233 (cytotoxic strain containing exoU), with various susceptibilities to antibiotics were also used [14]. C. albicans ATCC 10231, a yeast, isolated from case of a human bronchomycosis, was also evaluated.
(§4) The peptoids’ minimum inhibitory and bactericidal concentrations (MIC and MBC) were determined using micro broth dilution methods as previously described with slight modifications, [26, 39, 49, 50], and without using acetic acid and bovine serum albumin [39]. Briefly, bacteria or yeast were suspended in Muller Hinton broth (MHB, Oxoid, Thermo Fisher Scientific, Thebarton, SA, Australia) at 0.1 OD660nm, which was equivalent to 1x10^8 colony forming units (CFU) mL^−1. This suspension was further diluted to achieve 5x10^6 CFU mL^−1. The peptoids were diluted in MHB from 250 to 0.24 μg mL^−1 in 96-well polystyrene microplates (COSTAR, Corning Incorporated, New York, NY, USA) [39]. […] This was followed by addition of 100 μL of each microbial suspensions. Wells with only bacteria or the yeast were treated as a negative control, and wells with only MHB medium were treated as a blank. The plates were incubated at 37 °C with shaking at 120 rpm for 24 h. After incubation, the media in each well was serially diluted in phosphate buffered solution and then inoculated onto tryptone soya agar (Oxoid) plates for bacteria, or Sabouraud’s dextrose agar for the yeast, and incubated at 37 °C for 18 hrs. Post incubation, the number of CFUs on the agar plates was counted.

[2] = system: Staphylococcus aureus SA34; conditions: SA34, MHB, 24 h 37 °C
Excerpt: as §3, §4

[3] = system: Candida albicans ATCC 10231; assay: MIC/MBC (fungicidal) micro broth dilution; conditions: ATCC 10231 (yeast), MHB, 24 h 37 °C
Excerpt: as §3, §4

[4] = system: Staphylococcus aureus SA117; conditions: SA117, MHB, 24 h 37 °C
Excerpt: as §3, §4

[5] = system: Streptococcus pneumoniae SP04; conditions: SP04, MHB, 24 h 37 °C
Excerpt: as §3, §4

[6] = system: Streptococcus pneumoniae SP06; conditions: SP06, MHB, 24 h 37 °C
Excerpt: as §3, §4

[7] = system: Staphylococcus aureus SA114; conditions: SA114, MHB, 24 h 37 °C
Excerpt: as §3, §4

[8] = system: Pseudomonas aeruginosa PA235; conditions: PA235, MHB, 24 h 37 °C
Excerpt: as §3, §4

[9] = system: Streptococcus gallolyticus SG04; conditions: SG04, MHB, 24 h 37 °C
Excerpt: as §3, §4

[10] = system: horse erythrocytes; assay: In vitro assay for hemolysis, horse blood
Protocol: (§1) Hemolysis caused by the peptoids was measured using 18 to 20 mL of a horse or human blood collected in EDTA-coated tubes which has been centrifuged at 500×g for 5 min. The supernatant was discarded and the pellet containing the cells were resuspended in PBS to a final volume of 20 mL. This step was repeated five times. After the final wash, the pellet was resuspended in PBS at the ratio of 1:10 (1 mL red blood cell: 9 mL PBS) to yield a final red blood cell (RBC) concentration of approximately 5 × 10^8 cells mL^−1. The concentration of RBCs was confirmed using a hemocytometer. The peptoids (stock concentration 2 mM) were diluted sequentially (two-fold dilutions) in PBS to final concentrations of […]. All the dilutions were subsequently mixed with the RBC suspension at the ratio of 1:1. MilliQ water was used as a positive control and PBS was used as a negative control in this assay. All samples were incubated at 37 °C for 3 h. Following incubation, the tubes were centrifuged at 500 x g for five mins, the supernatants were collected, transferred to wells in a 96 well plate and their optical density was measured at 540 nm. The percentage of hemolysis was calculated by dividing the absorbance of the test sample by the absorbance of the positive control, and multiplying by 100. Data are presented as the hemolysis caused by each dilution of peptoid, and as the concentration of peptoid that caused 10 % or 50 % lysis of red blood cells.
(§2) The geometric mean is the nth root of the multiplied numbers, where n is the total number of data values. A similar formula was used to calculate the selectivity ratio, but by using the concentration of peptoid that caused 10 % hemolysis.

[11] = system: Pseudomonas aeruginosa PAO1; conditions: PAO1, MHB
Excerpt: as §3, §4

[12] = system: Pseudomonas aeruginosa PA219; conditions: PA219, MHB, 24 h 37 °C
Excerpt: as §3, §4

[13] = system: Pseudomonas aeruginosa PA233; conditions: PA233, MHB, 24 h 37 °C
Excerpt: All S. aureus strains used were isolated from cases of microbial keratitis (Table 1) with various susceptibilities to antibiotics. The S. pneumoniae strains used were SP04, SP06 and SP07 [46] and Streptococcus gallolyticus SV06 (all isolated from eyes of contact lens wearers during adverse events); P. aeruginosa PAO1 (which was originally isolated from a wound, and is an invasive strain containing the gene exoS) as well as isolates from microbial keratitis, PA 235 (invasive strain containing exoS), PA216 (a cytotoxic strain containing exoU), PA219 (cytotoxic strain containing exoU), PA 233 (cytotoxic strain containing exoU), with various susceptibilities to antibiotics were also used. C. albicans ATCC 10231, a yeast, isolated from case of a human bronchomycosis, was also evaluated.
The peptoids’ minimum inhibitory and bactericidal concentrations (MIC and MBC) were determined using micro broth dilution methods as previously described with slight modifications, [26, 39, 49, 50], and without using acetic acid and bovine serum albumin [39]. Briefly, bacteria or yeast were suspended in Muller Hinton broth (MHB, Oxoid, Thermo Fisher Scientific, Thebarton, SA, Australia) at 0.1 OD660nm, which was equivalent to 1x10^8 colony forming units (CFU) mL^−1. This suspension was further diluted to achieve 5x10^6 CFU mL^−1. The peptoids were diluted in MHB from 250 to 0.24 μg mL^−1 in 96-well polystyrene microplates (COSTAR, Corning Incorporated, New York, NY, USA). This range was selected to cover the range of MIC values previously reported for ESKAPE pathogens. This was followed by addition of 100 μL of each microbial suspensions. Wells with only bacteria or the yeast were treated as a negative control, and wells with only MHB medium were treated as a blank. The plates were incubated at 37 °C with shaking at 120 rpm for 24 h. After incubation, the media in each well was serially diluted in phosphate buffered solution and then inoculated onto tryptone soya agar (Oxoid) plates for bacteria, or Sabouraud’s dextrose agar for the yeast, and incubated at 37 °C for 18 hrs. Post incubation, the number of CFUs on the agar plates was counted.

[14] = system: Staphylococcus aureus SA113; conditions: SA113, MHB, 24 h 37 °C
Excerpt: as §3, §4

[15] = system: human erythrocytes; assay: In vitro assay for hemolysis, human blood
Protocol: as §1, §2

[16] = system: viridans group streptococcus SV06; conditions: SV06, MHB, 24 h 37 °C
Excerpt: as §3, §4

[17] = system: Staphylococcus aureus SA65; conditions: SA65, MHB, 24 h 37 °C
Excerpt: as §3, §4

[18] = system: Pseudomonas aeruginosa PA216; conditions: PA216, MHB, 24 h 37 °C
Excerpt: as §3, §4

## CCCCCCCCCCNCC(=O)N(CCCCN)CC(=O)N(CC(=O)N(CC(=O)N(CCCCN)CC(=O)N(CC(=O)N(CC(=O)N(CCCCN)CC(N)=O)[C@@H](C)c1ccccc1)[C@@H](C)c1ccccc1)[C@@H](C)c1ccccc1)[C@@H](C)c1ccccc1 [TM18] (H-[NDecylGly][Nlys][Nspe][Nspe][Nlys][Nspe][Nspe][Nlys]-NH2)
[1]; ≥90 % reduction in CFUs
  MIC: 15(12)/15(12) μg mL^−1
[1]; ≥99.99 % reduction in CFUs
  MBC: 15(12)/15(12) μg mL^−1
[2]; ≥90 % reduction in CFUs
  MIC: 7.8(6.3)/7.8(6.3) μg mL^−1
[2]; ≥99.99 % reduction in CFUs
  MBC: 7.8(6.3)/7.8(6.3) μg mL^−1
[3]; ≥90 % reduction in CFUs
  MIC: 3.9(3.1)/3.9(3.1) μg mL^−1
[3]; ≥99.99 % reduction in CFUs
  MBC (minimum fungicidal concentration): 3.9(3.1)/3.9(3.1) μg mL^−1
[4]; ≥90 % reduction in CFUs
  MIC: 3.9(3.1)/3.9(3.1) μg mL^−1
[4]; ≥99.99 % reduction in CFUs
  MBC: 3.9(3.1)/3.9(3.1) μg mL^−1
[5]; ≥90 % reduction in CFUs
  MIC: 15(12)/15(12) μg mL^−1
[5]; ≥99.99 % reduction in CFUs
  MBC: 15(12)/15(12) μg mL^−1
[6]; ≥90 % reduction in CFUs
  MIC: 1.9(1.6)/1.9(1.6) μg mL^−1
[6]; ≥99.99 % reduction in CFUs
  MBC: 1.9(1.6)/1.9(1.6) μg mL^−1
[7]; ≥90 % reduction in CFUs
  MIC: 3.9(3.1)/3.9(3.1) μg mL^−1
[7]; ≥99.99 % reduction in CFUs
  MBC: 3.9(3.1)/3.9(3.1) μg mL^−1
[8]; ≥90 % reduction in CFUs
  MIC: 7.8 µg/mL (≈ 6.27 µM)
[8]; ≥99.99 % reduction in CFUs
  MBC: 15 µg/mL (≈ 12.1 µM)
[9]; ≥90 % reduction in CFUs
  MIC: 15(12)/1512) μg mL^−1
[9]; ≥99.99 % reduction in CFUs
  MBC: 15(12)/1512) μg mL^−1
[10]; concentration causing 10 % lysis of horse red blood cells, PBS, 3 h 37 °C, OD 540 nm
  Horse HC10: 3 µM
[10]; concentration causing 50 % lysis of horse red blood cells, PBS, 3 h 37 °C, OD 540 nm
  Horse HC50: 110 µM
[10]; selectivity ratio
  SR horse blood (ratio HC10 to geometric mean MIC): 0.6
[10]; therapeutic index
  TI horse blood (ratio HC50 to geometric mean MIC): 22
[11]; 5x10^6 CFU mL^−1, 24 h 37 °C, ≥90 % reduction in CFUs
  MIC: 15 µg/mL (≈ 12.1 µM)
[11]; 24 h 37 °C, ≥99.99 % reduction in CFUs
  MBC: 31 µg/mL (≈ 24.9 µM)
[12]; ≥90 % reduction in CFUs
  MIC: 15 µg/mL (≈ 12.1 µM)
[12]; ≥99.99 % reduction in CFUs
  MBC: 31 µg/mL (≈ 24.9 µM)
[13]; ≥90 % reduction in CFUs
  MIC: 15 µg/mL (≈ 12.1 µM)
[13]; ≥99.99 % reduction in CFUs
  MBC: 31 µg/mL (≈ 24.9 µM)
[14]; ≥90 % reduction in CFUs
  MIC: 1.9 µg/mL (≈ 1.53 µM)
[14]; ≥99.99 % reduction in CFUs
  MBC: 1.95 µg/mL (≈ 1.57 µM)
[15]; concentration causing 10 % lysis of human red blood cells, PBS, 3 h 37 °C, OD 540 nm
  Human HC10: 5 µM
[15]; concentration causing 50 % lysis of human red blood cells, PBS, 3 h 37 °C, OD 540 nm
  Human HC50: 225 µM
[15]; selectivity ratio
  SR human blood (ratio HC10 to geometric mean MIC): 1
[15]; therapeutic index
  TI human blood (ratio HC50 to geometric mean MIC): 45
[16]; ≥90 % reduction in CFUs
  MIC: 15(12)/15(12) μg mL^−1
[16]; ≥99.99 % reduction in CFUs
  MBC: 15(12)/15(12) μg mL^−1
[17]; ≥90 % reduction in CFUs
  MIC: 3.9(3.1)/3.9(3.1) μg mL^−1
[17]; ≥99.99 % reduction in CFUs
  MBC: 3.9(3.1)/3.9(3.1) μg mL^−1
[18]; ≥90 % reduction in CFUs
  MIC: 15(12)/15(12) μg mL^−1
[18]; ≥99.99 % reduction in CFUs
  MBC: 15(12)/15(12) μg mL^−1
